# Reference: patent US9670227B2, “Thienopyrimidine derivatives, a process for their preparation and pharmaceutical compositions containing them” (LES LABORATOIRES SERVIER, priority 2013, dated 2017)
# Target: Mcl-1 protein (UniProtKB primary accession number: Q07820) (Homo sapiens, UniProt Q07820)
# Test: Inhibition of Mcl-1 by fluorescence polarisation, Method 1
# Format: binding
# Conditions: fluorescence polarisation test; Method 2 values are underlined in the patent (underlining not visible here); read-out: IC50 (M) Mcl-1 FP
# Description: The relative binding potency of each compound was determined via Fluorescence Polarisation (FP).
# An 11 point serial dilution of each compound was prepared in DMSO and 2 μl transferred into flat bottomed, low binding, 384-well plate (final DMSO concentration 5%). 38 μl of buffer (10 mM 4-(2-hydroxyethyl)-1-piperazineethanesulfonic acid [HEPES], 150 mM NaCl, 0.05% Tween 20, pH 7.4), containing the Fluorescein labelled ligand (final concentration 1 nM) and Mcl-1 protein (final concentration 5 nM) was then added.
# Sequence of Mcl-1 protein (Q07820 whole entry): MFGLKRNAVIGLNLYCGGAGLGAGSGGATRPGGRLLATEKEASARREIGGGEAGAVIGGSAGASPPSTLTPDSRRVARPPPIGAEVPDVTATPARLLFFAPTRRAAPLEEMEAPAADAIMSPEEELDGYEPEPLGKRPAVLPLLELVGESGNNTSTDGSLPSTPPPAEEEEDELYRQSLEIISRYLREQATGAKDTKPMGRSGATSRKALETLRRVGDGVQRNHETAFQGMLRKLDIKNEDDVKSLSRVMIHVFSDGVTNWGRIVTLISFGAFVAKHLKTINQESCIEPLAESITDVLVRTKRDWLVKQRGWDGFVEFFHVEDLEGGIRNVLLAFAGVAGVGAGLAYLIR
row,SMILES,IC50
1,"Cc1c(-c2c(-c3ccc(F)cc3)sc3ncnc(OC(Cc4ccccc4OCc4ccnc(-c5ccco5)n4)C(=O)O)c23)ccc(OCCN2CCN(C)CC2)c1Cl [Example 117, (2R)-2-{[(5Sa)-5-{3-chloro-2-methyl-4-[2-(4-methylpiperazin-1-yl)ethoxy]phenyl}-6-(4-fluorophenyl)thieno[2,3-d]pyrimidin-4-yl]oxy}-3-(2-{[2-(furan-2-yl)pyrimidin-4-yl]methoxy}phenyl)propanoic acid]",6.1e-09 M
2,"Cc1cnccc1-c1nccc(COc2ccccc2CC(Oc2ncnc3sc(-c4ccc(F)cc4)c(-c4ccc(OCCN5CCN(C)CC5)c(Cl)c4C)c23)C(=O)O)n1 [Example 120, (2R)-2-{[(5Sa)-5-{3-chloro-2-methyl-4-[2-(4-methylpiperazin-1-yl)ethoxy]phenyl}-6-(4-fluorophenyl)thieno[2,3-d]pyrimidin-4-yl]oxy}-3-(2-{[2-(3-methylpyridin-4-yl)pyrimidin-4-yl]methoxy}phenyl)propanoic acid]",3.8e-09 M
3,"Cc1ccncc1-c1nccc(COc2ccccc2CC(Oc2ncnc3sc(-c4ccc(F)cc4)c(-c4ccc(OCCN5CCN(C)CC5)c(Cl)c4C)c23)C(=O)O)n1 [Example 123, (2R)-2-{[(5Sa)-5-{3-chloro-2-methyl-4-[2-(4-methylpiperazin-1-yl)ethoxy]phenyl}-6-(4-fluorophenyl)thieno[2,3-d]pyrimidin-4-yl]oxy}-3-(2-{[2-(4-methylpyridin-3-yl)pyrimidin-4-yl]methoxy}phenyl)propanoic acid]",4.3e-09 M
4,"COc1ccccc1-c1nccc(COc2ccccc2CC(Oc2ncnc3sc(-c4ccc(F)cc4)c(-c4ccc(OCCN(C)C)c(Cl)c4C)c23)C(=O)O)n1 [Example 135, (2R)-2-{[(5Sa)-5-{3-chloro-4-[2-(dimethylamino)ethoxy]-2-methylphenyl}-6-(4-fluorophenyl)thieno[2,3-d]pyrimidin-4-yl]oxy}-3-(2-{[2-(2-methoxyphenyl)pyrimidin-4-yl]methoxy}phenyl)propanoic acid]",8.6e-09 M
5,"Cc1c(-c2c(-c3ccc(F)cc3)sc3ncnc(OC(Cc4ccccc4OCc4cnccn4)C(=O)O)c23)ccc(OCCN2CCOCC2)c1Cl [Example 148, (2R)-2-{[(5Sa)-5-{3-chloro-2-methyl-4-[2-(morpholin-4-yl)ethoxy]phenyl}-6-(4-fluorophenyl)thieno[2,3-d]pyrimidin-4-yl]oxy}-3-[2-(pyrazin-2-ylmethoxy)phenyl]propanoic acid]",3.1e-08 M
6,"COc1ccccc1CC(Oc1ncnc2sc(-c3ccc(F)o3)c(-c3ccc(OCCN4CCN(C)CC4)c(Cl)c3C)c12)C(=O)O [Example 149, (2R)-2-{[(5Sa)-5-{3-chloro-2-methyl-4-[2-(4-methylpiperazin-1-yl)ethoxy]phenyl}-6-(5-fluorofuran-2-yl)thieno[2,3-d]pyrimidin-4-yl]oxy}-3-(2-methoxyphenyl)propanoic acid]",1.2e-08 M
7,"Cc1c(-c2c(-c3ccc(F)o3)sc3ncnc(OC(Cc4ccccc4OCC4CCCO4)C(=O)O)c23)ccc(OCCN2CCN(C)CC2)c1Cl [Example 150, (2R)-2-{[(5Sa)-5-{3-chloro-2-methyl-4-[2-(4-methylpiperazin-1-yl)ethoxy]phenyl}-6-(5-fluorofuran-2-yl)thieno[2,3-d]pyrimidin-4-yl]oxy}-3-{2-[(2R)-tetrahydrofuran-2-ylmethoxy]phenyl}propanoic acid]",9.3e-09 M
8,"Cc1c(-c2c(-c3ccc(F)o3)sc3ncnc(OC(Cc4ccccc4OCC(F)(F)F)C(=O)O)c23)ccc(OCCN2CCN(C)CC2)c1Cl [Example 158, (2R)-2-{[(5Sa)-5-{3-chloro-2-methyl-4-[2-(4-methylpiperazin-1-yl)ethoxy]phenyl}-6-(5-fluorofuran-2-yl)thieno[2,3-d]pyrimidin-4-yl]oxy}-3-[2-(2,2,2-trifluoroethoxy)phenyl]propanoic acid]",4.6e-09 M
9,"Cc1c(-c2c(-c3ccc(F)o3)sc3ncnc(OC(Cc4ccccc4OCc4ccnc(-c5ccncc5)n4)C(=O)O)c23)ccc(OCCN2CCN(C)CC2)c1Cl [Example 172, (2R)-2-{[(5Sa)-5-{3-chloro-2-methyl-4-[2-(4-methylpiperazin-1-yl)ethoxy]phenyl}-6-(5-fluorofuran-2-yl)thieno[2,3-d]pyrimidin-4-yl]oxy}-3-(2-{[2-(pyridin-4-yl)pyrimidin-4-yl]methoxy}phenyl)propanoic acid]",3e-09 M
10,"COCCc1nccc(COc2ccccc2CC(Oc2ncnc3sc(-c4ccc(F)o4)c(-c4ccc(OCCN5CCN(C)CC5)c(Cl)c4C)c23)C(=O)O)n1 [Example 174, (2R)-2-{[(5Sa)-5-{3-chloro-2-methyl-4-[2-(4-methylpiperazin-1-yl)ethoxy]phenyl}-6-(5-fluorofuran-2-yl)thieno[2,3-d]pyrimidin-4-yl]oxy}-3-(2-{[2-(2-methoxyethyl)pyrimidin-4-yl]methoxy}phenyl)propanoic acid]",2.3e-09 M
11,"Cc1c(-c2c(-c3ccc(F)o3)sc3ncnc(OC(Cc4ccccc4OCc4ccnc(N5CCOCC5)n4)C(=O)O)c23)ccc(OCCN2CCN(C)CC2)c1Cl [Example 175, (2R)-2-{[(5Sa)-5-{3-chloro-2-methyl-4-[2-(4-methylpiperazin-1-yl)ethoxy]phenyl}-6-(5-fluorofuran-2-yl)thieno[2,3-d]pyrimidin-4-yl]oxy}-3-(2-{[2-(morpholin-4-yl)pyrimidin-4-yl]methoxy}phenyl)propanoic acid]",3.9e-09 M
12,"COc1nccc(COc2ccccc2CC(Oc2ncnc3sc(-c4ccc(F)o4)c(-c4ccc(OCCN5CCN(C)CC5)c(Cl)c4C)c23)C(=O)O)n1 [Example 176, (2R)-2-{[(5Sa)-5-{3-chloro-2-methyl-4-[2-(4-methylpiperazin-1-yl)ethoxy]phenyl}-6-(5-fluorofuran-2-yl)thieno[2,3-d]pyrimidin-4-yl]oxy}-3-{2-[(2-methoxypyrimidin-4-yl)methoxy]phenyl}propanoic acid]",3.1e-09 M
13,"Cc1c(-c2c(-c3ccc(F)o3)sc3ncnc(OC(Cc4ccccc4OCc4ccnn4C)C(=O)O)c23)ccc(OCCN2CCN(C)CC2)c1Cl [Example 180, (2R)-2-{[(5Sa)-5-{3-chloro-2-methyl-4-[2-(4-methylpiperazin-1-yl)ethoxy]phenyl}-6-(5-fluorofuran-2-yl)thieno[2,3-d]pyrimidin-4-yl]oxy}-3-{2-[(1-methyl-1H-pyrazol-5-yl)methoxy]phenyl}propanoic acid]",8.9e-09 M
14,"Cc1c(-c2c(-c3ccc(F)o3)sc3ncnc(OC(Cc4ccccc4OCc4ccnn4C(C)(C)C)C(=O)O)c23)ccc(OCCN2CCN(C)CC2)c1Cl [Example 181, (2R)-3-{2-[(1-tert-butyl-1H-pyrazol-5-yl)methoxy]phenyl}-2-{[(5Sa)-5-{3-chloro-2-methyl-4-[2-(4-methylpiperazin-1-yl)ethoxy]phenyl}-6-(5-fluorofuran-2-yl)thieno[2,3-d]pyrimidin-4-yl]oxy}propanoic acid]",4.8e-09 M
15,"Cc1c(-c2c(-c3ccc(F)o3)sc3ncnc(OC(Cc4ccccc4OCc4ccnn4C(C)C)C(=O)O)c23)ccc(OCCN2CCN(C)CC2)c1Cl [Example 182, (2R)-2-{[(5Sa)-5-{3-chloro-2-methyl-4-[2-(4-methylpiperazin-1-yl)ethoxy]phenyl}-6-(5-fluorofuran-2-yl)thieno[2,3-d]pyrimidin-4-yl]oxy}-3-(2-{[1-(propan-2-yl)-1H-pyrazol-5-yl]methoxy}phenyl)propanoic acid]",4.4e-09 M
16,"CCn1nccc1COc1ccccc1CC(Oc1ncnc2sc(-c3ccc(F)o3)c(-c3ccc(OCCN4CCN(C)CC4)c(Cl)c3C)c12)C(=O)O [Example 184, (2R)-2-{[(5Sa)-5-{3-chloro-2-methyl-4-[2-(4-methylpiperazin-1-yl)ethoxy]phenyl}-6-(5-fluorofuran-2-yl)thieno[2,3-d]pyrimidin-4-yl]oxy}-3-{2-[(1-ethyl-1H-pyrazol-5-yl)methoxy]phenyl}propanoic acid]",6e-09 M
17,"CCCCn1nccc1COc1ccccc1CC(Oc1ncnc2sc(-c3ccc(F)o3)c(-c3ccc(OCCN4CCN(C)CC4)c(Cl)c3C)c12)C(=O)O [Example 188, (2R)-3-{2-[(1-butyl-1H-pyrazol-5-yl)methoxy]phenyl}-2-{[(5Sa)-5-{3-chloro-2-methyl-4-[2-(4-methylpiperazin-1-yl)ethoxy]phenyl}-6-(5-fluorofuran-2-yl)thieno[2,3-d]pyrimidin-4-yl]oxy}propanoic acid]",6.4e-09 M
18,"Cc1c(-c2c(-c3ccc(F)o3)sc3ncnc(OC(Cc4ccccc4OCc4cnccn4)C(=O)O)c23)ccc(OCCN2CCN(C)CC2)c1Cl [Example 189, (2R)-2-{[(5Sa)-5-{3-chloro-2-methyl-4-[2-(4-methylpiperazin-1-yl)ethoxy]phenyl}-6-(5-fluorofuran-2-yl)thieno[2,3-d]pyrimidin-4-yl]oxy}-3-[2-(pyrazin-2-ylmethoxy)phenyl]propanoic acid]",5.5e-09 M
19,"COc1ccccc1CC(Oc1ncnc2sc(-c3ccco3)c(-c3ccc(OCCN4CCN(C)CC4)c(Cl)c3C)c12)C(=O)O [Example 209, (2R)-2-{[(5Sa)-5-{3-chloro-2-methyl-4-[2-(4-methylpiperazin-1-yl)ethoxy]phenyl}-6-(furan-2-yl)thieno[2,3-d]pyrimidin-4-yl]oxy}-3-(2-methoxyphenyl)propanoic acid]",9.8e-09 M
20,"Cc1c(-c2c(-c3ccco3)sc3ncnc(OC(Cc4ccccc4OC4CCCc5cccnc54)C(=O)O)c23)ccc(OCCN2CCN(C)CC2)c1Cl [Example 213, (2R)-2-{[(5Sa)-5-{3-chloro-2-methyl-4-[2-(4-methylpiperazin-1-yl)ethoxy]phenyl}-6-(furan-2-yl)thieno[2,3-d]pyrimidin-4-yl]oxy}-3-[2-(5,6,7,8-tetrahydroquinolin-8-yloxy)phenyl]propanoic acid]",1.8e-08 M
